Experimental data reported in ChEMBL document CHEMBL5244255, “An insight on medicinal attributes of 1,2,4-triazoles” (Eur J Med Chem, 2020).
Values after ≈ are worked out from the molar mass of the structure shown.

Experiments:
[1] = system: Mus musculus; experiment: Anticonvulsant activity in ip dosed mouse; type: functional
[2] = Protection index, ratio of TD50 for neurotoxicity in ip dosed mouse to ED50 for anticonvulsant activity in ip dosed mouse; type: toxicity, organism-based; details: in vivo, read-out: Ratio TD50/ED50
[3] = system: Rattus norvegicus; experiment: Antiinflammatory activity in rat assessed as reduction in edema at 17 mg/kg, ip measured after 5 hrs relative to control; type: functional; design: scale not given: the % may be the effect or the level left
[4] = Inhibition of 5 alpha reductase (unknown origin)
[5] = species: Rattus norvegicus; experiment: Bronchodilator activity in Sprague-Dawley rat; type: functional, organism-based
[6] = system: Rattus norvegicus; experiment: Antiinflammatory activity in rat assessed as reduction in xylene induced edema at 10 mg/kg, po by CPE test relative to control; type: functional; design: scale not given: the % may be the effect or the level left
[7] = system: MCF7; experiment: Anticancer activity against human MCF7 cells assessed a cell growth inhibition incubated for 48 hrs by SRB assay; type: functional, cell-based; details: MCF7, 48 h
[8] = target: Vascular endothelial growth factor receptor 2 (Homo sapiens, UniProt P35968); experiment: Inhibition of human VEGFR2 using biotinylated poly-GluTyr as substrate at 117 ng/ml incubated for 24 hrs in presence of ATP by ELISA assay relative to control
Vascular endothelial growth factor receptor 2, sequence (P35968 whole entry): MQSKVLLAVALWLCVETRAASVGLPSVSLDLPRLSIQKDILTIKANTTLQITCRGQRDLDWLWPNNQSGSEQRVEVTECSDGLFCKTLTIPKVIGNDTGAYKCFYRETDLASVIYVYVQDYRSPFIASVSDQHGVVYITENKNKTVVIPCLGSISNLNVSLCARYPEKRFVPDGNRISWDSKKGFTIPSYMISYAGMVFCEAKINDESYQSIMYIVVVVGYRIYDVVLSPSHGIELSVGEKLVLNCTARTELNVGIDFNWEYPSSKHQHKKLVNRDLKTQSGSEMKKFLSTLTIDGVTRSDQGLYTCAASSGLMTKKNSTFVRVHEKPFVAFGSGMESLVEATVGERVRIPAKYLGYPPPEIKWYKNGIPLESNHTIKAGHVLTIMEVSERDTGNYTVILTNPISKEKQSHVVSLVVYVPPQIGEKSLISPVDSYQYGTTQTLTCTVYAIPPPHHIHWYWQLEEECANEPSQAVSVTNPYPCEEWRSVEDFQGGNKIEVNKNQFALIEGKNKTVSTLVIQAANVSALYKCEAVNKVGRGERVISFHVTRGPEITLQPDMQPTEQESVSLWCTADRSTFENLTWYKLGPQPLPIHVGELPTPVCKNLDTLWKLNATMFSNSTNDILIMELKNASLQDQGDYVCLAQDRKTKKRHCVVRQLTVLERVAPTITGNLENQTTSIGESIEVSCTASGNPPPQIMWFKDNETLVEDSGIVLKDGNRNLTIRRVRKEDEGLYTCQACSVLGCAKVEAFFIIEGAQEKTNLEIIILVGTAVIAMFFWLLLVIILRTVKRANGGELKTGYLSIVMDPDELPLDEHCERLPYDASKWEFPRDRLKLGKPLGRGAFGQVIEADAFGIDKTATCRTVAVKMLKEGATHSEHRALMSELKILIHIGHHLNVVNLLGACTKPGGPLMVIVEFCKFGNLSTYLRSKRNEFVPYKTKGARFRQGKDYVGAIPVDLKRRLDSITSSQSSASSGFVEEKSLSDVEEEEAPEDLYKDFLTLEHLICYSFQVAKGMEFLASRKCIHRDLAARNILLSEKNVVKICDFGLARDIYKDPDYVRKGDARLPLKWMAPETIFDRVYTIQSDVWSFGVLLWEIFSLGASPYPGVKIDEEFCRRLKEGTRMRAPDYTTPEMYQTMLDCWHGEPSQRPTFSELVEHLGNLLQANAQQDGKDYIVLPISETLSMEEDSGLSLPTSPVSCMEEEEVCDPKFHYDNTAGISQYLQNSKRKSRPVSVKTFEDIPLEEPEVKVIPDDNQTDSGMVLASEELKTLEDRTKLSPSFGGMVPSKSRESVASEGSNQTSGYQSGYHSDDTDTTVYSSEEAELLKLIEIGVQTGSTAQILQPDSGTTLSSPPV

[9] = system: Rattus norvegicus; experiment: Antiinflammatory activity in rat assessed as reduction in carrageenan induced edema at 10 mg/kg, po measured after 4 to 5 hrs relative to control; type: functional; design: scale not given: the % may be the effect or the level left; details: time 4-5 hrs
[10] = target: Tubulin (Bos taurus, UniProt Q6B856+Q862L2+Q862F3); experiment: Inhibition of bovine brain tubulin polymerization incubated for 20 mins in presence of GTP
[11] = system: MCF7; experiment: Antiproliferative activity against human MCF7 cells assessed as cell growth inhibition incubated for 48 hrs by MTT assay; type: functional, cell-based; details: MCF7, 48 h
[12] = system: RS4-11; experiment: Antiproliferative activity against human RS4-11 cells assessed as cell growth inhibition incubated for 48 hrs by MTT assay; type: functional, cell-based; details: RS4-11, 48 h
[13] = system: HT-29; experiment: Antiproliferative activity against human HT-29 cells assessed as cell growth inhibition incubated for 48 hrs by MTT assay; type: functional, cell-based; details: HT-29, 48 h
[14] = system: Jurkat; experiment: Antiproliferative activity against human jurkat cells assessed as cell growth inhibition incubated for 48 hrs by MTT assay; type: functional, cell-based
[15] = system: HeLa; experiment: Antiproliferative activity against human HeLa cells assessed as cell growth inhibition incubated for 48 hrs by MTT assay; type: functional, cell-based
[16] = system: Plasmodium falciparum; experiment: Antimalarial activity against Chloroquine resistant Plasmodium falciparum W2; type: functional, organism-based
[17] = system: HCT-116; experiment: Anticancer activity against human HCT-116 cells assessed as cell growth inhibition
[18] = system: Xanthomonas oryzae pv. oryzae; experiment: Antibacterial activity against Xanthomonas oryzae pv. oryzae assessed as bacterial growth inhibition by turbidimetric method; type: functional, organism-based
[19] = system: Plasmodium falciparum; experiment: microbe, parasite or virus in culture
[20] = system: Leishmania major; experiment: Potency index, ratio of test compound IC50 to miltefosine IC50 for antileishmanial activity against promastigotes stage of leishmania major; type: functional
[21] = system: Leishmania major; experiment: Potency index, ratio of test compound IC50 to amphotericin B IC50 for antileishmanial activity against promastigotes stage of leishmania major; type: functional
[22] = system: Leishmania major; experiment: Antileishmanial activity against promastigotes stage of Leishmania major; type: functional, organism-based
[23] = system: Enterococcus faecalis; experiment: Antibacterial activity against Enterococcus faecalis ATCC 29212 assessed as bacterial growth inhibition by double micro dilution method; type: functional
[24] = system: Staphylococcus aureus; experiment: Antibacterial activity against Staphylococcus aureus ATCC 25923 assessed as bacterial growth inhibition by double micro dilution method; type: functional
[25] = system: Acinetobacter haemolyticus; experiment: Antibacterial activity against Acinetobacter haemolyticus ATCC 19002 assessed as bacterial growth inhibition by double micro dilution method; type: functional
[26] = system: Escherichia coli; experiment: Antibacterial activity against Escherichia coli ATCC 25922 assessed as bacterial growth inhibition by double micro dilution method; type: functional
[27] = system: Pseudomonas aeruginosa; experiment: Antibacterial activity against Pseudomonas aeruginosa ATCC 27853 assessed as bacterial growth inhibition by double micro dilution method; type: functional
[28] = system: Klebsiella pneumoniae; experiment: Antibacterial activity against Klebsiella pneumoniae ATCC 13883 assessed as bacterial growth inhibition by double micro dilution method; type: functional
[29] = species: Mus musculus; experiment: Anticonvulsant activity in mouse assessed as MES-induced seizures measured after 30 mins; type: functional; details: 0.5 h
[30] = species: Mus musculus; experiment: Antiseizure activity against ScPTZ-induced seizure in mouse; type: functional; details: route sc
[31] = system: Middle East respiratory syndrome-related coronavirus; experiment: Antiviral activity of Middle East respiratory syndrome coronavirus; type: functional, organism-based
[32] = target: Epidermal growth factor receptor (Homo sapiens, UniProt P00533); experiment: Inhibition of EGFR (unknown origin) […] insect sf9 cells incubated for 1 hrs in presence of ATP
Epidermal growth factor receptor, sequence (P00533 whole entry): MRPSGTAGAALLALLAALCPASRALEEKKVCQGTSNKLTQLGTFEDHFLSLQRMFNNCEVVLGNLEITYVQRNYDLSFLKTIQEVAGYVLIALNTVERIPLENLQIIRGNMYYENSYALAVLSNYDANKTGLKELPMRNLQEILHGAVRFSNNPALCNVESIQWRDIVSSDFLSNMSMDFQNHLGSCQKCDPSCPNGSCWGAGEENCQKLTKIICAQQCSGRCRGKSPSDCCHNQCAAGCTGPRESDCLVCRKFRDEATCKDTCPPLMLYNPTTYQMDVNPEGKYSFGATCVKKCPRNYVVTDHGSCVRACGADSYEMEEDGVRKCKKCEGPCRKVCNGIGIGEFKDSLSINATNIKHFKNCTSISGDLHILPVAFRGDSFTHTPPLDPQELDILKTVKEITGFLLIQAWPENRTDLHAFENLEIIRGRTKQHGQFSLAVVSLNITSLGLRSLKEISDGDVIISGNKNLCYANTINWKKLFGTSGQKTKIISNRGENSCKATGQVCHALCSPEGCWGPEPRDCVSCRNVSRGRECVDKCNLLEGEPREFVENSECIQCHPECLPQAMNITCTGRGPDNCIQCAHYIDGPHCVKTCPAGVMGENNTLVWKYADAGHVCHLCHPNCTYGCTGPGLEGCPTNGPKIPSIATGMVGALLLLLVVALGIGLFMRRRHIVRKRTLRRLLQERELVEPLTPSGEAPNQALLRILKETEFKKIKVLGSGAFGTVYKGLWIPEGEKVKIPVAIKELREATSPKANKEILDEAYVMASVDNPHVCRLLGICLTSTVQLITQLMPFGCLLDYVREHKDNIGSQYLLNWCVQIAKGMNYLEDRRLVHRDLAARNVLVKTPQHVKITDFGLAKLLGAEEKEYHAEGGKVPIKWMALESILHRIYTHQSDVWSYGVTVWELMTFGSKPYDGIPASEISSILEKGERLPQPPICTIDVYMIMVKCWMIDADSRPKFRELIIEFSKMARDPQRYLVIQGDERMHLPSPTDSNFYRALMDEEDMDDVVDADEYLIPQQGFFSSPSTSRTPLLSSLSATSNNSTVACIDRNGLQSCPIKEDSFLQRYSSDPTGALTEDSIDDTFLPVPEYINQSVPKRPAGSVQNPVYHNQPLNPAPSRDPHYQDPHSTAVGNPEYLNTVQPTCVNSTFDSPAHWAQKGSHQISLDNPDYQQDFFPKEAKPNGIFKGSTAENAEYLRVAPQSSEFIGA

[33] = Inhibition of BRAF V600E mutant (unknown origin) incubated for 25 mins in presence of ATP by ELISA assay; design: species or system Homo sapiens
[34] = target: Tubulin; experiment: Inhibition of tubulin (unknown origin); type: protein-complex assay, Homo sapiens
[35] = Protection index, ratio of TD50 for neurotoxicity in po dosed mouse to ED50 for anticonvulsant activity in ip dosed mouse; type: toxicity, organism-based; details: in vivo, read-out: Ratio TD50/ED50
[36] = system: Mus musculus; experiment: Anticonvulsant activity in po dosed mouse assessed as MES-induced seizures; type: functional
[37] = system: Staphylococcus aureus; experiment: Antibacterial activity against Staphylococcus aureus 6538 assessed as bacterial growth inhibition incubated for 24 hrs; type: functional
[38] = system: Staphylococcus aureus; experiment: Antibacterial activity against Methicillin-resistant Staphylococcus aureus assessed as bacterial growth inhibition incubated for 24 hrs; type: functional
[39] = system: Xanthomonas oryzae pv. oryzae; experiment: Antibacterial activity against Xanthomonas oryzae pv. oryzae assessed as bacterial growth inhibition; type: functional, organism-based
[40] = system: Mycobacterium tuberculosis; experiment: Antimycobacterial activity against Mycobacterium tuberculosis H37Rv measured after 7 days; type: functional; details: 168 h, time 7 day

NC(=O)N1c2ccccc2C=Cc2ccccc21 [CARBAMAZEPINE]
ED50 [1]: 11.8 mg/kg | selectivity ratio [2]: 6.4

C=Cn1c(SCC(=O)Nc2ccc(/C(C)=N/O)cc2)nnc1-c1cc(-c2ccc(OC)cc2)nc2ccccc12
Activity [3]: 111%

O=C(Nc1ccccc1)C1=NN(c2ccccc2)/C(=C2/C=NN(Cc3cc4ccccc4oc3=O)C2=O)N1c1ccccc1
ED50 [4]: 150 nM

O=c1c(-c2n[nH]c(=S)n2-c2ccccc2)c[nH]c2ncnn12
EC50 [5]: 57100 nM

Fc1cc(F)cc(-c2nn3c(CN4c5ccccc5Sc5ccccc54)nnc3s2)c1
Activity [6]: 82.24%

COc1ccc(-c2cc(-c3nnc(SCC(=O)Nc4ccc(/C(C)=N/O)cc4)n3-c3ccccc3)c3ccccc3n2)cc1
Activity [3]: 100%

O=c1nc2c3c(ncn2[nH]1)Oc1c(c(=O)oc2ccccc12)C3c1ccc(F)cc1 (stereo not given)
IC50 [7]: 7.9 µg/mL (≈ 19.6 µM) | inhibition [8]: 94%

O=C(CSc1nnc(COc2ccccc2)n1-c1ccc(Cl)cc1)Nc1nc2ccccc2s1
Activity [9]: 84.43%

COc1cc(C(=O)n2nc(-c3ccc(C)cc3)nc2N)cc(OC)c1OC
IC50 [10]: 660 nM | IC50 [11]: < 1000 nM | IC50 [12]: < 1000 nM | IC50 [13]: < 1000 nM | IC50 [14]: < 1000 nM | IC50 [15]: < 1000 nM

Cc1cc(Nc2ccc(Cl)c(Cl)c2)n2nc(C(F)(F)F)nc2n1
IC50 [16]: 23 nM

O=c1c2c3c(sc2n2c(CN4CCN(c5ccc(Cl)cc5)CC4)nnc2n1Cc1ccccc1)CCCC3
IC50 [17]: 6560 nM

CCOC(=O)c1nc(Sc2nnc3c(Cl)cccn23)c2ccccc2n1
EC50 [18]: 7.2 µg/mL (≈ 18.7 µM)

Nc1cc(Cl)c(S(N)(=O)=O)cc1-c1nnc(S)n1-c1ccccc1
IC50 [19]: 0.023 µg/mL (≈ 0.0602 µM)

CC(C)(C#N)c1cc(Cn2cncn2)cc(C(C)(C)C#N)c1
ED50 [4]: 1090 nM

Cc1cc(Nc2ccc(C(F)(F)F)cc2)n2nc(C(F)(F)F)nc2n1
IC50 [16]: 23 nM

CC(C)C(C(=O)O)N1C(N)=NNC1c1ccccc1O (stereo not given)
Ratio IC50 [20]: 36 | Ratio IC50 [21]: 36 | IC50 [22]: 0.0312 µg/mL (≈ 0.112 µM)

CCn1c(CN2CCN(c3ccccc3)CC2)nn(CN2CCN(c3cc4c(cc3F)c(=O)c(C(=O)O)cn4C3CC3)CC2)c1=S
MIC [23]: 0.125 µg/mL (≈ 0.193 µM) | MIC [24]: 0.125 µg/mL (≈ 0.193 µM) | MIC [25]: 0.125 µg/mL (≈ 0.193 µM) | MIC [26]: 0.125 µg/mL (≈ 0.193 µM) | MIC [27]: 0.125 µg/mL (≈ 0.193 µM) | MIC [28]: 0.125 µg/mL (≈ 0.193 µM)

O=C(CSc1nc[nH]n1)Nc1nc2ccc(OCc3cccc(F)c3)cc2s1
ED50 [29]: 50.8 mg/kg | ED50 [30]: 76 mg/kg

Sc1nnc(NNc2ccc(I)cc2)n1NC1C=CCC1 (stereo not given)
IC50 [31]: 470 nM

COc1ccc(C(=O)n2nc(-c3cccnc3)nc2N)cc1
IC50 [32]: 3600 nM | IC50 [33]: 1900 nM | IC50 [34]: 957 nM

COc1ccc(-c2nc(N)n(C(=O)c3cc(OC)c(OC)c(OC)c3)n2)cc1
IC50 [10]: 970 nM | IC50 [11]: < 1000 nM | IC50 [12]: < 1000 nM | IC50 [13]: < 1000 nM | IC50 [14]: < 1000 nM | IC50 [15]: < 1000 nM

O=c1c2ccccc2n2cnnc2n1-c1ccc(Br)cc1
selectivity ratio [35]: > 26 | ED50 [36]: 94.6 mg/kg

FC(F)(F)c1cc(-c2nnc(Sc3cc(Cl)nc(Sc4ccccc4)n3)[nH]2)cc(C(F)(F)F)c1
MIC [37]: 1.8 µM (≈ 0.961 µg/mL) | MIC [38]: 0.43 µg/mL (≈ 0.805 µM)

COc1ccc(-c2cc(-c3nnc(SCC(=O)Nc4ccc(/C(C)=N/O)cc4)n3-c3ccccc3)c3cc(C)ccc3n2)cc1
Activity [3]: 101%

Cn1c(=O)c2nc[nH]c2n(C)c1=O [THEOPHYLLINE]
EC50 [5]: 425000 nM

S=c1[nH]nc(NCNc2n[nH]c(=S)s2)s1
EC50 [18]: 89.8 µg/mL (≈ 323 µM) | EC50 [39]: 85.6 µg/mL (≈ 307 µM)

COc1ccc(C(=O)n2nc(-c3ccncc3)nc2N)cc1
IC50 [32]: 4600 nM | IC50 [33]: 1800 nM | IC50 [34]: 872 nM

CC[C@@H](CO)NCCN[C@@H](CC)CO [ETHAMBUTOL]
MIC [40]: 6.25 µg/mL (≈ 30.6 µM)
